Among the test systems are COLO 205; DU-145; EKVX; HCT-15; Hs-578T; K562; LOX IMVI; MDA-MB-231; MDA-MB-435; NCI-H226; OVCAR-4; RPMI-8226; SF-268; SF-539; SK-MEL-28; SK-MEL-5; SK-OV-3; SR; OVCAR-5; HOP-92.
Holding throughout (test): DTP human tumour cell line panel, 48 h

The results in this text go back to ChEMBL document CHEMBL1201862, “PubChem BioAssay data set” (2004).

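Dose response: 5 concentrations. Exposure: 48 h. Format: 96-well plates. Endpoint: linear interpolation; highest concentration if not reached. GI50 marks 50% less growth.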 Active and inactive are the calls of the source. Cut-off read from the data, not from the text of the source: active = GI50 up to about 1.1 µM and inactive = higher. Bounds are passed on as bounds.

As a reminder, the GI50 is the concentration at which growth is held to half of that of the control.

On to `O=C(/C=C/c1ccsc1)c1ccsc1`, for which the GI50 is 22.4 µM (inactive) in the test with COLO 205; > 100 µM (inactive) in the test on DU-145; 70.5 µM (inactive) with EKVX; 19.1 µM in the test with HCT-15; 27.8 µM (inactive) in the test on Hs-578T; > 10 µM (inactive) in the test on K562. The GI50 in the test with LOX IMVI was 19.1 µM (inactive); with MDA-MB-231, 20.6 µM (inactive); in the test with MDA-MB-435, 22.5 µM (inactive); in the test with NCI-H226 it was 17 µM (inactive); in the test with OVCAR-4 it was 37.2 µM (inactive); in the test with RPMI-8226, 15.5 µM (inactive). Also, the GI50 in the test with SF-268 was 44.8 µM (inactive); in the test on SF-539, 17.5 µM (inactive); in the test with SK-MEL-28, 37.1 µM (inactive); in the test with SK-MEL-5, 19.2 µM (inactive); in the test on SK-OV-3 it was > 100 µM (inactive); with SR, 19.5 µM (inactive).
As for `CC[C@H](C)[C@H](NC(=O)[C@@]1(O)[C@H](O)[C@]2(CC)C=CCN3CC[C@@]4(c5cc(Br)c(OC)cc5N(C)[C@@H]14)[C@@H]32)C(=O)OC`, the GI50 with COLO 205 was 14 µM (inactive); with DU-145, > 100 µM (inactive); with EKVX, 40.2 µM (inactive); in the test with HCT-15, 25.7 µM; in the test with Hs-578T it was 23.2 µM (inactive); with K562, 67.1 µM (inactive). The GI50 is 16.8 µM (inactive) with LOX IMVI; 15.7 µM (inactive) with MDA-MB-231; 20.5 µM (inactive) with MDA-MB-435; 4.84 µM (inactive) in the test with OVCAR-4; > 100 µM (inactive) with OVCAR-5; 14.2 µM (inactive) with RPMI-8226. The GI50 in the test with SF-268 was 27.7 µM (inactive); in the test on SF-539, 27.5 µM (inactive); with SK-MEL-28, 13.2 µM (inactive); with SK-MEL-5, 24.4 µM (inactive); with SK-OV-3 it was 38 µM (inactive); in the test with SR, 27.2 µM (inactive).
Take `C[N+](C)(C)CCC(=O)N1C/C(=C\c2ccccc2)C(=O)/C(=C/c2ccccc2)C1`: the GI50 in the test with COLO 205 is 3.47 µM (inactive); with DU-145 it was 16.8 µM (inactive); in the test on EKVX it was 21.4 µM (inactive); with HCT-15 it was 2.47 µM; with HOP-92 it was 20.6 µM (inactive); with Hs-578T, 4.31 µM (inactive). The GI50 in the test on K562 was 1.21 µM (inactive); in the test with LOX IMVI, 1.7 µM (inactive); with MDA-MB-231, 3.22 µM (inactive); in the test on MDA-MB-435 it was 2.29 µM (inactive); in the test on NCI-H226, 10 µM (inactive); with OVCAR-4 it was 3.37 µM (inactive). In addition, the GI50 in the test with OVCAR-5 was 16.9 µM (inactive); with RPMI-8226, 0.385 µM (active); in the test with SF-268, 5.14 µM (inactive); with SF-539 it was 5.06 µM (inactive); in the test on SK-MEL-28 it was 8.05 µM (inactive); in the test on SK-MEL-5, 9.95 µM (inactive). Moreover, the GI50 with SK-OV-3 was 23.7 µM (inactive).
In the case of `COc1ccc(/C=C/c2cnnc3ccccc23)cc1OC`, the GI50 with COLO 205 is > 10 µM (inactive); in the test with DU-145, > 10 µM (inactive); with EKVX, > 10 µM (inactive); in the test with HCT-15, over 10 µM; in the test with HOP-92 it was 3.7 µM (inactive); with Hs-578T, > 10 µM (inactive). The GI50 in the test on K562, with LOX IMVI, in the test on MDA-MB-231, in the test with MDA-MB-435, in the test with NCI-H226 and with OVCAR-4 was > 10 µM (inactive) each time. Also, the GI50 in the test on OVCAR-5, in the test on RPMI-8226, in the test on SF-268, in the test with SF-539, in the test with SK-MEL-28 and in the test with SK-MEL-5 was > 10 µM (inactive) in each case. In the test with SK-OV-3, the GI50 was > 10 µM (inactive).
